Experimental data published in the supplement of paper PMC10307832.

Key:
Assay in all cases: relative viability (nuclei count vs DMSO), 5 days (fraction); higher = more cells survive
[1] = test system: SK-LU-1
How it was run: (§1)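 Lung cancer cell lines, seeded in 1536-well plates, were treated the following day by pin tool with a single drug or with five library-drug doses (not always all listed) in √10 steps on top of a fixed anchor-drug dose. Cells were fixed and nuclei stained in one step after 5 days, and nuclei were counted. Relative viability is the nuclei count for treated wells divided by that for vehicle wells, reported as medians of duplicate plates.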

[2] = test system: PC-3 [JPC-3]
How it was run: as §1

[3] = test system: NCI-H1793
How it was run: as §1

[4] = test system: SW 1573
How it was run: as §1

[5] = test system: A-427
How it was run: as §1

[6] = test system: LU99A
How it was run: as §1

[7] = test system: NCI-H1792
How it was run: as §1

[8] = test system: LXF-289
How it was run: as §1

[9] = test system: COR-L23
How it was run: as §1

[10] = test system: NCI-H2170
How it was run: as §1

[11] = test system: ABC-1
How it was run: as §1

[12] = test system: NCI-H1944
How it was run: as §1

[13] = test system: EMC-BAC-2
How it was run: as §1

[14] = test system: NCI-H727
How it was run: as §1

[15] = test system: NCI-H2009
How it was run: as §1

[16] = test system: NCI-H596
How it was run: as §1

[17] = test system: NCI-H2228
How it was run: as §1

[18] = test system: LK-2
How it was run: as §1

[19] = test system: NCI-H3122
How it was run: as §1

[20] = test system: HOP-62
How it was run: as §1

[21] = test system: SK-MES-1
How it was run: as §1

[22] = test system: HARA
How it was run: as §1

[23] = test system: NCI-H1993
How it was run: as §1

Clc1ccc(Nc2nnc(Cc3ccncc3)c3ccccc23)cc1 [Vatalanib] + CS(=O)(=O)CCNCc1ccc(-c2ccc3ncnc(Nc4ccc(OCc5cccc(F)c5)c(Cl)c4)c3c2)o1 [Lapatinib] (partner 2 µM)
relative viability ([1]; first compound 0.04 µM): 0.963
relative viability ([1]; first compound 0.1265 µM): 0.875
relative viability ([1]; first compound 0.4 µM): 1.21
relative viability ([1]; first compound 1.265 µM): 0.885
relative viability ([1]; first compound 4 µM): 0.848
relative viability ([2]; first compound 0.04 µM): 0.49
relative viability ([2]; first compound 0.1265 µM): 0.461
relative viability ([2]; first compound 0.4 µM): 0.448
relative viability ([2]; first compound 1.265 µM): 0.43
relative viability ([2]; first compound 4 µM): 0.442
relative viability ([3]; first compound 0.04 µM): 0.743
relative viability ([3]; first compound 0.1265 µM): 0.704
relative viability ([3]; first compound 0.4 µM): 1.05
relative viability ([3]; first compound 1.265 µM): 0.64
relative viability ([3]; first compound 4 µM): 0.81
relative viability ([4]; first compound 0.04 µM): 1.29
relative viability ([4]; first compound 0.1265 µM): 0.942
relative viability ([4]; first compound 0.4 µM): 1.23
relative viability ([4]; first compound 1.265 µM): 1.04
relative viability ([4]; first compound 4 µM): 1.05
relative viability ([5]; first compound 0.04 µM): 1.01
relative viability ([5]; first compound 0.1265 µM): 0.938
relative viability ([5]; first compound 0.4 µM): 0.769
relative viability ([5]; first compound 1.265 µM): 0.972
relative viability ([5]; first compound 4 µM): 1.11
relative viability ([6]; first compound 0.04 µM): 0.893
relative viability ([6]; first compound 0.1265 µM): 0.986
relative viability ([6]; first compound 0.4 µM): 1.16
relative viability ([6]; first compound 1.265 µM): 0.831
relative viability ([6]; first compound 4 µM): 0.92
relative viability ([7]; first compound 0.04 µM): 0.892
relative viability ([7]; first compound 0.1265 µM): 0.852
relative viability ([7]; first compound 0.4 µM): 0.966
relative viability ([7]; first compound 1.265 µM): 0.87
relative viability ([7]; first compound 4 µM): 0.877
relative viability ([8]; first compound 0.04 µM): 0.959
relative viability ([8]; first compound 0.1265 µM): 0.82
relative viability ([8]; first compound 0.4 µM): 0.98
relative viability ([8]; first compound 1.265 µM): 0.891
relative viability ([8]; first compound 4 µM): 0.904
relative viability ([9]; first compound 0.04 µM): 0.848
relative viability ([9]; first compound 0.1265 µM): 0.753
relative viability ([9]; first compound 0.4 µM): 1.01
relative viability ([9]; first compound 1.265 µM): 1.07
relative viability ([9]; first compound 4 µM): 0.868
relative viability ([10]; first compound 0.04 µM): 0.261
relative viability ([10]; first compound 0.1265 µM): 0.268
relative viability ([10]; first compound 0.4 µM): 0.286
relative viability ([10]; first compound 1.265 µM): 0.261
relative viability ([10]; first compound 4 µM): 0.264
relative viability ([11]; first compound 0.04 µM): 1.33
relative viability ([11]; first compound 0.1265 µM): 0.931
relative viability ([11]; first compound 0.4 µM): 1.16
relative viability ([11]; first compound 1.265 µM): 1.23
relative viability ([11]; first compound 4 µM): 1.05
relative viability ([12]; first compound 0.04 µM): 0.904
relative viability ([12]; first compound 0.1265 µM): 0.635
relative viability ([12]; first compound 0.4 µM): 0.909
relative viability ([12]; first compound 1.265 µM): 0.804
relative viability ([12]; first compound 4 µM): 0.784
relative viability ([13]; first compound 0.04 µM): 0.905
relative viability ([13]; first compound 0.1265 µM): 0.884
relative viability ([13]; first compound 0.4 µM): 0.919
relative viability ([13]; first compound 1.265 µM): 0.832
relative viability ([13]; first compound 4 µM): 0.885
relative viability ([14]; first compound 0.04 µM): 0.806
relative viability ([14]; first compound 0.1265 µM): 0.717
relative viability ([14]; first compound 0.4 µM): 0.9
relative viability ([14]; first compound 1.265 µM): 0.709
relative viability ([14]; first compound 4 µM): 1.02
relative viability ([15]; first compound 0.04 µM): 1.03
relative viability ([15]; first compound 0.1265 µM): 0.868
relative viability ([15]; first compound 0.4 µM): 1.1
relative viability ([15]; first compound 1.265 µM): 0.894
relative viability ([15]; first compound 4 µM): 0.919
relative viability ([16]; first compound 0.04 µM): 1.07
relative viability ([16]; first compound 0.1265 µM): 1.22
relative viability ([16]; first compound 0.4 µM): 1.14
relative viability ([16]; first compound 1.265 µM): 1.03
relative viability ([16]; first compound 4 µM): 1.16
relative viability ([17]; first compound 0.04 µM): 1.32
relative viability ([17]; first compound 0.1265 µM): 1.14
relative viability ([17]; first compound 0.4 µM): 1.06
relative viability ([17]; first compound 1.265 µM): 0.981
relative viability ([17]; first compound 4 µM): 1.28
relative viability ([18]; first compound 0.04 µM): 0.88
relative viability ([18]; first compound 0.1265 µM): 0.831
relative viability ([18]; first compound 0.4 µM): 0.698
relative viability ([18]; first compound 1.265 µM): 1.03
relative viability ([18]; first compound 4 µM): 0.93
relative viability ([19]; first compound 0.04 µM): 1.01
relative viability ([19]; first compound 0.1265 µM): 1.01
relative viability ([19]; first compound 0.4 µM): 1.01
relative viability ([19]; first compound 1.265 µM): 0.977
relative viability ([19]; first compound 4 µM): 0.97
relative viability ([20]; first compound 0.04 µM): 1.13
relative viability ([20]; first compound 0.4 µM): 1.06
relative viability ([20]; first compound 1.265 µM): 0.827
relative viability ([20]; first compound 4 µM): 0.989
relative viability ([21]; first compound 0.04 µM): 0.516
relative viability ([21]; first compound 0.1265 µM): 0.457
relative viability ([21]; first compound 0.4 µM): 0.464
relative viability ([21]; first compound 1.265 µM): 0.462
relative viability ([21]; first compound 4 µM): 0.429
relative viability ([22]; first compound 0.04 µM): 0.583
relative viability ([22]; first compound 0.1265 µM): 0.694
relative viability ([22]; first compound 0.4 µM): 0.746
relative viability ([22]; first compound 1.265 µM): 0.731
relative viability ([22]; first compound 4 µM): 0.948
relative viability ([23]; first compound 0.04 µM): 0.909
relative viability ([23]; first compound 0.1265 µM): 0.721
relative viability ([23]; first compound 0.4 µM): 0.828
relative viability ([23]; first compound 1.265 µM): 0.755
relative viability ([23]; first compound 4 µM): 0.747
